From ChEMBL document CHEMBL1152019, “A series of conformationally and sterically constrained analogs of N-phenyl-N-aralkylurea ACAT inhibitors” (Bioorg Med Chem Lett, 1995) come the findings set out here.

Activity calls are given as the source filed them. No cut-off for these calls is given here.

Test [1] relates to Rattus norvegicus. The experiment in a line: In vivo percent change of total cholesterol compared to control at a dose 30 mg/Kg in rats fed with cholic acid (0.5%), cholesterol (1.5%) and peanut oil (5.5%). The test is classed as functional.
In the next test the target is O-acyltransferase (Oryctolagus cuniculus, UniProt G1SFD9). The experiment in a line: In vitro inhibitory activity against ACAT was determined in rabbit intestinal microsome from cholesterol-fed animals. It counts as microsomes, Intestine.
Chain of O-acyltransferase (G1SFD9 1-524): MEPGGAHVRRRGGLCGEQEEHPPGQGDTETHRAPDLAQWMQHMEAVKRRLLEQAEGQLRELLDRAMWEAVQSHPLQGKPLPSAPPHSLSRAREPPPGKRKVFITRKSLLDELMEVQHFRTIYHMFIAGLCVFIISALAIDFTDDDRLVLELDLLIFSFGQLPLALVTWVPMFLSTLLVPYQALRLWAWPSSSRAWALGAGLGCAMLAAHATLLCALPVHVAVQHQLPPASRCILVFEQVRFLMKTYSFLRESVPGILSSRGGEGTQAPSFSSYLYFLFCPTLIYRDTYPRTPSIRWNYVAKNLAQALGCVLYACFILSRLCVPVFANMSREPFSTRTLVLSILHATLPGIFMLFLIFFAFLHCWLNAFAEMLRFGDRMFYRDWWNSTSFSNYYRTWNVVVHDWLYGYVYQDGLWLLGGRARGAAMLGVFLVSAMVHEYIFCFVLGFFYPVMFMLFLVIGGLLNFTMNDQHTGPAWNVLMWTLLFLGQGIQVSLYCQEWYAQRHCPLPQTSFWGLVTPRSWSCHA
The subject of test [2] is Rattus norvegicus. The experiment in a line: Compound was evaluated in vivo for percent change of total cholesterol compared to control at a dose 30 mg/Kg in rats fed with cholic acid (0.5%), cholesterol (1.5%) and peanut oil (5.5%); No change. The test is classed as functional, organism-based.

In the case of `CC(C)c1cccc(C(C)C)c1NC(=O)NOC(c1ccccc1)c1ccccc1`, the Change in the test on Rattus norvegicus [1] is -67%.

As to `CC(C)c1cccc(C(C)C)c1NC(=O)NCCc1cccc2ccccc12`, the Change in the test with Rattus norvegicus [1] is on record as -32%.

For the compound `CC(C)c1cccc(C(C)C)c1NC(=O)NCC1(c2ccccc2)CCCC1`, the Change in the test with Rattus norvegicus [1] is reported as -70%.

Usually IC50 stands for the concentration at which inhibition is half-maximal. Low readings indicate inhibition by little substance, high ones a need for much substance. As for `CC(C)c1cccc(C(C)C)c1NC(=O)NCC1(c2ccccc2)Cc2ccccc2C1`, the Change in the test with Rattus norvegicus [1] is given as -67%. Further, it took 27 nM to reach half-maximal inhibition against O-acyltransferase (IC50).

`CC(C)c1cccc(C(C)C)c1NC(=O)NCC(c1ccccc1)(c1ccccc1)c1ccccc1`: the Change in the test with Rattus norvegicus [1] is listed as -68%. Half-maximal inhibition on O-acyltransferase (IC50) was put at 91 nM.

Regarding `CC(C)c1cccc(C(C)C)c1NC(=O)NC1CCCc2ccccc21` (stereo unspecified), the Change result with Rattus norvegicus [2] is “inactive”.

Consider `CC(C)c1cccc(C(C)C)c1NC(=O)NCC1c2ccccc2Oc2ccccc21`, for which the Change in the test on Rattus norvegicus [1] is given as -25%. For the same compound, at O-acyltransferase, inhibition was half-maximal at 42 nM (IC50).

On to `CC(C)c1cccc(C(C)C)c1NC(=O)NCC1CCCc2ccccc21` (stereo unspecified), for which the Change in the test with Rattus norvegicus [1] is -47%. On O-acyltransferase, this compound displayed an IC50 of 36 nM.

In the case of `CC(C)c1cccc(C(C)C)c1NC(=O)NCC1(O)CCCc2ccccc21` (stereo unspecified), in the test on Rattus norvegicus [2], the Change entry was “inactive”. For the same compound, on O-acyltransferase, the midpoint of inhibition, the IC50, lay at 350 nM.

As for `CC(C)c1cccc(C(C)C)c1NC(=O)NC1Cc2ccccc2C1`, the Change with Rattus norvegicus [1] was -8%. On O-acyltransferase, this compound returned an IC50 of 96 nM.

Take `COc1cccc2c1CCC(NC(=O)Nc1c(C(C)C)cccc1C(C)C)C2` (stereo unspecified): the Change with Rattus norvegicus [1] was -39%. Inhibition on O-acyltransferase was half-maximal at 17 nM (IC50).

Consider `CC(C)c1cccc(C(C)C)c1NC(=O)NCC1c2ccccc2-c2ccccc21`, for which the Change in the test on Rattus norvegicus [1] is given as -41%.

Turning to `CC(C)c1cccc(C(C)C)c1NC(=O)NCC1(c2ccc(N(C)C)cc2)CCCC1` [NEVANIMIBE], the Change in the test with Rattus norvegicus [1] is on record as -76%.

`CC(C)c1cccc(C(C)C)c1NC(=O)NCCc1ccc2ccccc2c1`: the Change in the test on Rattus norvegicus [1] is -54%.

`CC(C)c1cccc(C(C)C)c1NC(=O)NCC1(O)CCc2ccccc21` (stereo unspecified): the Change entry in the test on Rattus norvegicus [2] is “inactive”. In addition, at O-acyltransferase, 810 nM corresponded to half-maximal inhibition (IC50).

In the case of `CC(C)c1cccc(C(C)C)c1NC(=O)NCc1cccc2ccccc12`, the Change with Rattus norvegicus [1] is listed as -53%. This compound gave a 50% inhibitory concentration (IC50) on O-acyltransferase of 34 nM.

As for `CC(C)c1cccc(C(C)C)c1NC(=O)NOC(c1ccccc1)(c1ccccc1)c1ccccc1`, the Change in the test with Rattus norvegicus [1] is -30%.

On to `CC(C)c1cccc(C(C)C)c1NC(=O)NCCc1ccccc1`, for which, in the test with Rattus norvegicus [1], the Change is -16%.

`CC(C)c1cccc(C(C)C)c1NC(=O)NC1CCc2ccccc2C12CCCC2` (stereo unspecified): in the test on Rattus norvegicus [1], the Change is -49%. This compound also came in with an IC50 against O-acyltransferase of 31 nM.

Turning to `CC(C)c1cccc(C(C)C)c1NC(=O)NCC(c1ccccc1)c1ccccc1`, the Change in the test on Rattus norvegicus [1] is on record as -73%.

Take `CC(C)c1cccc(C(C)C)c1NC(=O)NC1CCc2ccccc2C1` (stereo unspecified): the Change with Rattus norvegicus [1] is on record as -26%. This compound showed an IC50 against O-acyltransferase of 63 nM.

With `CC(C)c1cccc(C(C)C)c1NC(=O)NCC1CCc2ccccc21` (stereo unspecified), in the test with Rattus norvegicus [1], the Change is -49%. At O-acyltransferase, this compound displayed an IC50 of 27 nM.

Turning to `CC(C)c1cccc(C(C)C)c1NC(=O)NC1CCc2ccccc21` (stereo unspecified), the Change result in the test on Rattus norvegicus [2] was “inactive”. At O-acyltransferase, this compound displayed an IC50 of 910 nM.

In the case of `CC(C)c1cccc(C(C)C)c1NC(=O)NOCc1cccc2ccccc12`, the Change in the test on Rattus norvegicus [1] is on record as -32%.

As for `CC(C)c1cccc(C(C)C)c1NC(=O)NCC1=CCCc2ccccc21`, the Change in the test with Rattus norvegicus [1] is -33%. Besides, the midpoint of inhibition against O-acyltransferase, the IC50, lay at 29 nM.

Take `CC(C)c1cccc(C(C)C)c1NC(=O)NC1COc2ccccc2C1` (stereo unspecified): the Change in the test with Rattus norvegicus [1] is -20%. The compound further yielded an IC50 against O-acyltransferase of 110 nM.
